Results on one compound are retold here after patent US11684610B2, “Pharmaceutical composition including 1,2-naphthoquinone derivative compound for prevention or treatment of solid cancers or blood cancers” (YUNGJIN PHARM. CO., LTD., priority 2018, dated 2023).

As usually defined, the pIC50 is the IC50 on a negative log10 scale, so that one unit is a factor of ten.

pIC50: −log10 of the molar value.

The subject of one series is C57BL/6 mice. Briefly: Acute toxicity experiment, mortality in mice. The conditions noted are these: 120 mg/kg orally, 24 hours after administration. In kind it is in vivo. As to the method: This experiment was conducted to examine the acute toxicity to the animal body acutely (within 24 hours) when the compound 1 of the present invention was ingested in excess in a short period of time, and to determine the mortality rate. 20 C57BL/6 mice, which are common mice, were prepared, and ten mice were assigned to each group. Only 0.1% SLS (sodium lauryl sulfate) was administered to the control group, and the compound 1 was orally administered to the experimental group at a concentration of 120 mg/kg, respectively. As a result of examining each mortality rate 24 hours after administration, both the control group and the experimental group to which the compound 1 was administered survived.

The subject of a further series is A549 (lung carcinoma). Briefly: Cell viability in solid cancer cells, WST assay, A549. The conditions noted are these: Homo sapiens, A549, 1 to 30 μM, 6 hours. In kind it is cell-based, human. From the text: To confirm the possibility of use as a therapeutic agent for solid cancer, A549 cell line obtained from a […] with lung carcinoma, Hela cell line obtained from a person with cervix adenocarcinoma, HepG2 cell line obtained from a child with hepatocellular carcinoma, MCF7 cell line obtained from a person with breast adenocarcinoma, and Beas-2B cell line obtained from a normal lung for comparison with solid cancer cell line were used.
The A549 (lung carcinoma), Hela (cervix adenocarcinoma), HepG2 (hepatocellular carcinoma), MCF7 (breast carcinoma), and Beas-2B (normal lung) cell lines were used in DMEM medium containing 10% FBS, subcultured once every 2 days in an incubator under conditions of 37° C. and 5% CO2 and used in the experiment.
A549 (lung carcinoma), Hela (cervix adenocarcinoma), HepG2 (hepatocellular carcinoma), MCF7 (breast carcinoma), and Beas-2B (normal lung) cells cultured in Example 6-1 were inoculated into a 96-well plated at 1×10^4 cells/well, and then for the stabilization of cells, the cells were cultured in an incubator at 37° C. and 5% CO2 for 16 hours or more. Subsequently, among the compounds synthesized in Example 1, the compounds 1, 10 and 72 were treated at a concentration of 1 to 30 μM, and then cultured for 6 hours. At this time, DMSO and β-lapachone were used as the control group. After 4 hours of incubation, 10 μl of WST solution was added to each cell, the reaction was carried out for 2 hours, and the absorbance was measured at 450 nm with a multi-scan machine. The cell viabilities of A549 (lung carcinoma), Hela (cervix adenocarcinoma), HepG2 (hepatocellular carcinoma) and MCF7 (breast carcinoma) cells are shown in Table 4 and FIG. 6 below.

For the compound `CC(C)c1nc2c([nH]1)C(=O)C(=O)c1ccccc1-2` [compound 1], the “mortality, acute toxicity” value with C57BL/6 mice is on record as “survived”. Besides, the pIC50 with A549 (lung carcinoma) was 5.29.
